Entries after “also recorded” stand apart in the source; their conditions may differ. Where a SMILES comes first, the peptide text is derived from it. [ ]: non-standard residue; d: D form. Hyp = O=C(O)[CH]1C[CH](O)CN1; Phe(ol) = N[CH](CO)Cc1ccccc1; Iva = CC[C](C)(N)C(=O)O; Aib = CC(C)(N)C(=O)O
How the values were obtained:
platelet aggregation = conditions: literature; cited from earlier work
laboratory mice [1] = assay: Influence on spontaneous motility (neuroleptic effect, mouse model); format: in vivo; conditions: 10 mg/kg intraperitoneal, observed from 5 min up to 24 hours
Procedure: (§1) Neuroleptic effect of the cephaibols in the mouse model
The influence of cephaibols A, B, C, D and E on motoricity in laboratory mice was observed over various periods of time (from 5 min up to 24 hours).
Fright reactions (noises) were retained, thereby ruling out the possibility of the cephaibols having a narcotic effect in the experimental arrangement.

laboratory mice [2] = assay: Hypothermia (neuroleptic effect, mouse model); format: in vivo; conditions: 10 mg/kg intraperitoneal
Excerpt: as §1

Phoma destructiva = assay: Induction of pigment formation in Phoma destructiva, punched-hole plate agar diffusion test; format: cell-based; conditions: 50 µL of test solution per hole, 20 to 25° C., 4 to 5 days
Excerpt: The induction of pigment formation in the fungus Phoma destructiva is a test model for, inter alia, identifying a potential immunosuppressant effect in test substances. The implementation of the Phoma destructiva test has been described by K. Dornberger et al. in J. Antibiotics, §, 977-989,1995.
The organism Phoma destructiva is a fungus which is known to be pathogenic to plants and which grows, in feebly colored colonies, on agar plates which have been inoculated with vegetative mycelium. Cell differentiation processes, which are accompanied by the formation of a pigment and therefore enable cell differentiation to be detected, are initiated under the influence of special inducers. The pigment, which is a melanin-like substance, can be recognized by its color and quantified photometrically or by measuring the zone size.
The fungus Phoma destructiva was cultured on sloping agar tubes containing culture medium A or B at from 20 to 25° C. and then stored at from 4 to 6° C. and reinoculated in a 2-year rhythm.
The fungus Phoma destructiva was cultured at from 20 to 25° C. for 11 days on medium B in 100 mm diameter petri dishes and, after that, washed off with 10 ml of a sterile 0.9% solution of NaCl. The wash-off can be used for 5 days when stored at 8° C.
The agar diffusion test method was a modification of the standardized agar diffusion assay described in the European Pharmacopoeia [Deutscher Apothekerverlag Stuttgart, pages 113-118, 1997]: 40 mL of test agar medium were liquefied and brought to a constant temperature of 50° C.; from 8 to 10 mL of the inoculation culture were added under sterile conditions and the mixture was then poured into 150 mm diameter test plates. After the plates had cooled, 12 punched holes of 9 mm in diameter were arranged on the plate using a punching implement [J, V. Benett et al. Appl. Micr.1.1;, 170-177, 1966]. The test holes were loaded with 50JiL of the solution to be tested, with one test hole containing cyclosporin as the control substance (1 μg of cyclosporin A in 50 μL of methanol). […]

Compound | platelet aggregation (platelet aggregation) | motoricity (climbing) in comparison with the control mice (laboratory mice [1]) | body temperature as compared with the control animals (laboratory mice [2]) | pigment formation in Phoma destructiva (Phoma destructiva)
Clonostachin | inhibits |  |  | 
CCC(C)(NC(=O)C(CC(C)C)NC(=O)CNC(=O)C(C)(CC)NC(=O)C(C)(C)NC(=O)C(C)(C)NC(=O)C(C)(C)NC(=O)C(Cc1ccccc1)NC(C)=O)C(=O)NC(C)(C)C(=O)N1CC(O)CC1C(=O)NC(CCC(N)=O)C(=O)NC(C)(CC)C(=O)N1CC(O)CC1C(=O)NC(C)(C)C(=O)N1CCCC1C(=O)NC(CO)Cc1ccccc1 (stereo not drawn) [cephaibol B, AcPhe-Aib-Aib-Aib-Iva-Gly-Leu-Iva-Aib-Hyp-Gln-Iva-Hyp-Aib-Pro-Phe-ol] (Ac-F[Aib][Aib][Aib][Iva]GL[Iva][Aib][Hyp]Q[Iva][Hyp][Aib]P[Phe(ol)]; configuration not given here) |  | impaired; also recorded: particularly pronounced | marked reduction; also recorded: particularly pronounced | particularly pronounced
CCC(C)(NC(=O)C(CC(C)C)NC(=O)CNC(=O)C(C)(C)NC(=O)C(C)(C)NC(=O)C(C)(C)NC(=O)C(C)(C)NC(=O)C(Cc1ccccc1)NC(C)=O)C(=O)NC(C)(C)C(=O)N1CC(O)CC1C(=O)NC(CCC(N)=O)C(=O)NC(C)(CC)C(=O)N1CC(O)CC1C(=O)NC(C)(C)C(=O)N1CCCC1C(=O)NC(CO)Cc1ccccc1 (stereo not drawn) [cephaibol A, AcPhe-Aib-Aib-Aib-Aib-Gly-Leu-Iva-Aib-Hyp-Gln-Iva-Hyp-Aib-Pro-Phe-ol] (Ac-F[Aib][Aib][Aib][Aib]GL[Iva][Aib][Hyp]Q[Iva][Hyp][Aib]P[Phe(ol)]; configuration not given here) |  | impaired | marked reduction | particularly pronounced
CCC(C)(NC(=O)C(CC(C)C)NC(=O)CNC(=O)C(C)(C)NC(=O)C(C)(C)NC(=O)C(C)(C)NC(=O)C(C)(C)NC(=O)C(Cc1ccccc1)NC(C)=O)C(=O)NC(C)(C)C(=O)N1CC(O)CC1C(=O)NC(CCC(N)=O)C(=O)NC(C)(C)C(=O)N1CC(O)CC1C(=O)NC(C)(C)C(=O)N1CCCC1C(=O)NC(CO)Cc1ccccc1 (stereo not drawn) [cephaibol C, AcPhe-Aib-Aib-Aib-Aib-Gly-Leu-Iva-Aib-Hyp-Gln-Aib-Hyp-Aib-Pro-Phe-ol] (Ac-F[Aib][Aib][Aib][Aib]GL[Iva][Aib][Hyp]Q[Aib][Hyp][Aib]P[Phe(ol)]; configuration not given here) |  | impaired; also recorded: particularly pronounced | marked reduction; also recorded: particularly pronounced | particularly pronounced
CCC(C)(NC(=O)C(CC(C)C)NC(=O)CNC(=O)C(C)(C)NC(=O)C(C)(C)NC(=O)C(C)(C)NC(=O)C(C)(C)NC(=O)C(Cc1ccccc1)NC(C)=O)C(=O)NC(C)(C)C(=O)N1CC(O)CC1C(=O)NC(CCC(N)=O)C(=O)NC(C)(C)C(=O)N1CC(O)CC1C(=O)NC(C)(C)C(=O)N1CCCC1C(=O)NC(CO)Cc1ccccc1 (stereo not drawn) [cephaibol D, AcPhe-Aib-Aib-Aib-Aib-Gly-Leu-Aib-Aib-Hyp-Gln-Aib-Hyp-Aib-Pro-Xaa5] (Ac-F[Aib][Aib][Aib][Aib]GL[Iva][Aib][Hyp]Q[Aib][Hyp][Aib]P[Phe(ol)]; configuration not given here) |  | impaired |  | 
